From patent US7501430B2 (ArQule, Inc., priority 2006, dated 2009) come the findings set out here.

The test deals with T1, mutant B-RAF (Homo sapiens, UniProt P15056, V600E).
T1 construct: purchased Upstate (Charlottesville, Va.)
In words: RAF biochemical assay (MEK-1 phosphorylation, anti-phospho MEK1/2 detection). Conditions: for inhibition at 10 µM: read-out: Mutant B-RAF % inhibition. How it is done:
Materials: The RAF kinases and the anti-phospho MEK1/2 antibody were from Upstate (Charlottesville, Va.). The RAF substrate used was full length N-terminal GST-MEK-1, which was expressed in E. coli and purified in-house by HPLC. All proteins were aliquoted and stored at −80° C.
Compounds were serially diluted in assay buffer containing 1% DMSO and 20 μL of test compound at a concentration 3-fold more than the final concentration, and were added to a polypropylene V-well reaction plate. Vehicle control wells received buffer only with DMSO at equivalent concentrations to the test wells. […] These reaction plates were incubated at room temperature for 30 minutes. Capture of MEK-1 was initiated by transferring 50 μl of the reaction mixture to a Nunc Maxisorp™ microplate that is designed for non-specific protein capture. After 30 minute capture of MEK-1 at room temperature, this plate was washed with TBST (6×200 μL/well) to fully terminate the reaction. The plate was then blocked for 1 hour by the addition of 100 μl/well of Superblock™ in phosphate buffered saline (PBS) blocking reagent. Plate was again washed with TBST (6 times with 200 μL/well), followed by the addition of 70 μL/well of Upstate anti-phospho MEK 1/2 diluted 1:1000 in Pierce Superblock (PBS). After a 60 minute incubation, this plate was washed with TBST (6 times with 200 μL/well), and 70 μL of the secondary antibody (Pierce Alkaline Phosphatase tagged goat anti-rabbit) prepared at 1:4000 in Superblock, were added. After a 45 minute incubation at room temperature, the wells of the microplate were washed with TBST (6 times with 200 μL/well), and thereafter 100 μl/well of Attophos™ fluorescent alkaline phosphatase substrate was added according to the manufacturer's instructions (JBL Scientific).

Structures are written as SMILES. Read-outs that look alike come from different tables or passages of the source.

By IC50 is commonly meant the concentration needed to halve the response being measured. For orientation: inhibition means the percentage by which the read-out fell short of the control.

T1 sequence (P15056 whole entry V600E): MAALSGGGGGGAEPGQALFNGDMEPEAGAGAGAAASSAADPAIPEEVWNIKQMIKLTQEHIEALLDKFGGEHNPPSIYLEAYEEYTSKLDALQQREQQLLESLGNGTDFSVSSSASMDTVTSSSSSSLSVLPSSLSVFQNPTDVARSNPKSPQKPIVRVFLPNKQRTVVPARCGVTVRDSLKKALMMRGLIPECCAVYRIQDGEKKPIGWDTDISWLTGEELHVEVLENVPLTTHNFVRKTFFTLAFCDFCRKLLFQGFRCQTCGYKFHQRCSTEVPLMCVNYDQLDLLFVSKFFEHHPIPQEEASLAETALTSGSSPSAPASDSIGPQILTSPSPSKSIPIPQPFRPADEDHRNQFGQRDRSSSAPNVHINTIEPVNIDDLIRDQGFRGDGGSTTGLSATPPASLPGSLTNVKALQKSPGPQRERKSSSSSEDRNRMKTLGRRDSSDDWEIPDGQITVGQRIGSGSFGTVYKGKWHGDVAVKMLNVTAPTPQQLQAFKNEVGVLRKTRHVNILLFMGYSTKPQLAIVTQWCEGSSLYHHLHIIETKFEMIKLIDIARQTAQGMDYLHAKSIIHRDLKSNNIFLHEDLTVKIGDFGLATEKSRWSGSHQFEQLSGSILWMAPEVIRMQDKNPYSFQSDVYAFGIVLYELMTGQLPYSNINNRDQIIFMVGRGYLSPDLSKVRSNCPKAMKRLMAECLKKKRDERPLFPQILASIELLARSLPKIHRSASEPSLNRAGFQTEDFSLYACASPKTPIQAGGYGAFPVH

`O=C(c1ccncc1)N1CCC[C@@H](Nc2nccc(-c3c(-c4ccc(F)cc4)nc4occn34)n2)C1` [Example 32, 4-[6-(4-fluorophenyl)imi-dazo[2,1-b][1,3]oxazol-5-yl]-N-[(3R)-1-isonicotinoylpiper-idin-3-yl]pyrimidin-2-amine] returned an IC50 of 362 nM.
Still for that read-out and setting: under `O=C(c1ccco1)N1CCC[C@@H](Nc2nccc(-c3c(-c4ccc(F)cc4)nc4occn34)n2)C1` [Example 33, 4-[6-(4-fluorophenyl)imi-dazo[2,1-b][1,3]oxazol-5-yl]-N-[(3R)-1-(2-furoyl)piperidin-3-yl]pyrimidin-2-amine] stands 2170 nM; under `CCC(=O)N1CCC[C@@H](Nc2nccc(-c3c(-c4ccc(F)cc4)nc4occn34)n2)C1` [Example 34, 4-[6-(4-fluorophenyl)imi-dazo[2,1-b][1,3]oxazol-5-yl]-N-[(3R)-1-propionylpiperidin-3-yl]pyrimidin-2-amine], 1580 nM.
In the case of `NCC(=O)N1CCC[C@@H](Nc2nccc(-c3c(-c4ccc(F)cc4)nc4occn34)n2)C1` [Example 35, N-[(3R)-1-(aminoacetyl)piper-idin-3-yl]-4-[6-(4-fluorophenyl)imidazo[2,1-b][1,3]oxazol-5-yl]pyrimidin-2-amine], under “@ 10 uM”, the inhibition at 10 µM was found to be 11%.
As for `CC(C)(N)C(=O)N1CCC[C@@H](Nc2nccc(-c3c(-c4ccc(F)cc4)nc4occn34)n2)C1` [Example 36, N-[(3R)-1-(2-amino-2-methylpropanoyl)piperidin-3-yl]-4-[6-(4-fluorophenyl)imi-dazo[2,1-b][1,3]oxazol-5-yl]pyrimidin-2-amine], half-maximal inhibition (IC50) was put at 4520 nM.
Still for that read-out and setting: under `O=C([C@@H]1CCCN1)N1CCC[C@@H](Nc2nccc(-c3c(-c4ccc(F)cc4)nc4occn34)n2)C1` [Example 37, 4-[6-(4-fluorophenyl)imi-dazo[2,1-b][1,3]oxazol-5-yl]-N-[(3R)-1-L-prolylpiperidin-3-yl]pyrimidin-2-amine] stands more than 5000 nM; under `O=C(CCc1ccccc1)N1CCC[C@@H](Nc2nccc(-c3c(-c4ccc(F)cc4)nc4occn34)n2)C1` [Example 38, 4-[6-(4-fluorophenyl)imi-dazo[2,1-b][1,3]oxazol-5-yl]-N-[(3R)-1-(3-phenylpro-panoyl)piperidin-3-yl]pyr-imidin-2-amine], 2900 nM.
`CN(C)c1ccc(C(=O)N2CCC[C@@H](Nc3nccc(-c4c(-c5ccc(F)cc5)nc5occn45)n3)C2)cc1` [Example 39, N-{(3R)-1-[4-(dimethyl-amino)benzoyl]piperidin-3-yl}-4-[6-(4-fluorophenyl)imidazo[2,1-b][1,3]oxazol-5-yl]pyrimidin-2-amine]: the IC50 (read-out: Mutant B-RAF IC50) was determined as 477 nM.
Compound `CC(C)CC(=O)N1CCC[C@@H](Nc2nccc(-c3c(-c4ccc(F)cc4)nc4occn34)n2)C1` [Example 40, 4-[6-(4-fluorophenyl)imi-dazo[2,1-b][1,3]oxazol-5-yl]-N-[(3R)-1-(3-methylbuta-noyl)piperidin-3-yl]pyrimidin-2-amine] registered an IC50 of 142 nM.
Consider `O=C(N1CCOCC1)N1CCC[C@@H](Nc2nccc(-c3c(-c4ccc(F)cc4)nc4occn34)n2)C1` [Example 41, 4-[6-(4-fluorophenyl)imi-dazo[2,1-b][1,3]oxazol-5-yl]-N-[(3R)-1-(morpholin-4-ylcarbonyl)piperidin-3-yl]pyrimidin-2-amine], for which the inhibition at 10 µM turned out to be 38%.
On to `O=S(=O)(c1ccccc1)N1CCC[C@@H](Nc2nccc(-c3c(-c4ccc(F)cc4)nc4occn34)n2)C1` [Example 42, 4-[6-(4-fluorophenyl)imi-dazo[2,1-b][1,3]oxazol-5-yl]-N-[(3R)-1-(phenylsulfonyl)piperidin-3-yl]pyrimidin-2-amine], for which the “Mutant B-RAF % inhibition” value (@ 10 uM) is recorded as 68 @ 10 uM %.
For the compound `O=S(=O)(c1ccc(Cl)cc1)N1CCC[C@@H](Nc2nccc(-c3c(-c4ccc(F)cc4)nc4occn34)n2)C1` [Example 43, N-{(3R)-1-[(4-chlorophenyl)sulfonyl]piper-idin-3-yl}-4-[6-(4-fluorophenyl)imidazo[2,1-b][1,3]oxazol-5-yl]pyrimidin-2-amine], the IC50 (read-out: Mutant B-RAF IC50) is 143 nM.
`COc1ccc(S(=O)(=O)N2CCC[C@@H](Nc3nccc(-c4c(-c5ccc(F)cc5)nc5occn45)n3)C2)cc1` [Example 44, 4-[6-(4-fluorophenyl)imi-dazo[2,1-b][1,3]oxazol-5-yl]-N-{(3R)-1-[(4-methoxy-phenyl)sulfonyl]piperidin-3-yl}pyrimidin-2-amine]: the “Mutant B-RAF % inhibition” value (@ 10 uM) was 45 @ 10 uM %.
On to `Cc1ccc(S(=O)(=O)N2CCC[C@@H](Nc3nccc(-c4c(-c5ccc(F)cc5)nc5occn45)n3)C2)cc1` [Example 45, 4-[6-(4-fluorophenyl)imi-dazo[2,1-b][1,3]oxazol-5-yl]-N-{(3R)-1-[(4-methylphenyl)sulfonyl]piperidin-3-yl}pyr-imidin-2-amine], for which the IC50 turned out to be 590 nM.
For the compound `O=S(=O)(c1cccc(C(F)(F)F)c1)N1CCC[C@@H](Nc2nccc(-c3c(-c4ccc(F)cc4)nc4occn34)n2)C1` [Example 46, 4-[6-(4-fluorophenyl)imi-dazo[2,1-b][1,3]oxazol-5-yl]-N-((3R)-1-{[3-(trifluoro-methyl)phenyl]sulfonyl}piper-idin-3-yl)pyrimidin-2-amine], the “Mutant B-RAF % inhibition” value (@ 10 uM) is listed as 19 @ 10 uM %.
In the case of `O=S(=O)(c1ccc(F)c(Cl)c1)N1CCC[C@@H](Nc2nccc(-c3c(-c4ccc(F)cc4)nc4occn34)n2)C1` [Example 47, N-{(3R)-1-[(3-chloro-4-fluorophenyl)sulfonyl]piper-idin-3-yl}-4-[6-(4-fluorophenyl)imidazo[2,1-b][1,3]oxazol-5-yl]pyrimidin-2-amine], the IC50 (read-out: Mutant B-RAF IC50) was determined as 963 nM.
`CC(C)c1ccc(S(=O)(=O)N2CCC[C@@H](Nc3nccc(-c4c(-c5ccc(F)cc5)nc5occn45)n3)C2)cc1` [Example 48, 4-[6-(4-fluorophenyl)imi-dazo[2,1-b][1,3]oxazol-5-yl]-N-{(3R)-1-[(4-isopropyl-phenyl)sulfonyl]piperidin-3-yl}pyrimidin-2-amine] came in with an IC50 of 3020 nM.
`O=S(=O)(c1ccc(OC(F)(F)F)cc1)N1CCC[C@@H](Nc2nccc(-c3c(-c4ccc(F)cc4)nc4occn34)n2)C1` [Example 49, 4-[6-(4-fluorophenyl)imi-dazo[2,1-b][1,3]oxazol-5-yl]-N-((3R)-1-{(4-(trifluoro-methoxy)phenyl]sulfonyl}piperidin-3-yl)pyrimidin-2-amine]: the inhibition at 10 µM turned out to be 32%.
Regarding `O=S(=O)(c1cccc(Cl)c1)N1CCC[C@@H](Nc2nccc(-c3c(-c4ccc(F)cc4)nc4occn34)n2)C1` [Example 50, N-{(3R)-1-[(3-chlorophenyl)sulfonyl]piper-idin-3-yl}-4-[6-(4-fluorophenyl)imidazo[2,1-b][1,3]oxazol-5-yl]pyrimidin-2-amine], the inhibition at 10 µM (@ 10 uM) amounted to 35%.
Turning to `O=S(=O)(c1cc(Cl)cc(Cl)c1)N1CCC[C@@H](Nc2nccc(-c3c(-c4ccc(F)cc4)nc4occn34)n2)C1` [Example 51, N-{(3R)-1-[(3,5-dichlorophenyl)sulfonyl]pip-eridin-3-yl}-4-[6-(4-fluorophenyl)imidazo[2,1-b][1,3]oxazol-5-yl]pyrimidin-2-amine], the inhibition at 10 µM (@ 10 uM) was 25%.
As for `O=S(=O)(c1cccc(F)c1)N1CCC[C@@H](Nc2nccc(-c3c(-c4ccc(F)cc4)nc4occn34)n2)C1` [Example 52, 4-[6-(4-fluorophenyl)imi-dazo[2,1-b][1,3]oxazol-5-yl]-N-{(3R)-1-[(3-fluorophenyl)sulfonyl]piperidin-3-yl}pyr-imidin-2-amine], the inhibition at 10 µM was determined as 55%.
Same read-out and setting: under `Cc1ccccc1S(=O)(=O)N1CCC[C@@H](Nc2nccc(-c3c(-c4ccc(F)cc4)nc4occn34)n2)C1` [Example 53, 4-(6-(4-fluorophenyl)imi-dazo[2,1-b][1,3]oxazol-5-yl]-N-{(3R)-1-[(2-methylphenyl)sulfonyl]piperidin-3-yl}pyrimidin-2-amine] stands 42%.
In the case of `O=S(=O)(c1c(F)cccc1F)N1CCC[C@@H](Nc2nccc(-c3c(-c4ccc(F)cc4)nc4occn34)n2)C1` [Example 54, N-{(3R)-1-[(2,6-difluoro-phenyl)sulfonyl]piperidin-3-yl}-4-[6-(4-fluorophenyl)imidazo[2,1-b][1,3]oxazol-5-yl]pyrimidin-2-amine], the inhibition at 10 µM (@ 10 uM) turned out to be 47%.
As to `N#Cc1ccc(S(=O)(=O)N2CCC[C@@H](Nc3nccc(-c4c(-c5ccc(F)cc5)nc5occn45)n3)C2)cc1` [Example 55, 4-{[(3R)-3-({4-[6-(4-fluorophenyl)imidazo[2,1-b][1,3]oxazol-5-yl]pyrimidin-2-yl}amino)piperidin-1-yl]sulfonyl}benzonitrile], for the setting “read-out: Mutant B-RAF IC50”, the IC50 worked out at 630 nM.
As to `O=S(=O)(c1cc(C(F)(F)F)cc(C(F)(F)F)c1)N1CCC[C@@H](Nc2nccc(-c3c(-c4ccc(F)cc4)nc4occn34)n2)C1` [Example 56, N-((3R)-1-{[3,5-bis(trifluoromethyl)phenyl]sulfonyl}piperidin-3-yl)-4-[6-(4-fluorophenyl)imidazo[2,1-b][1,3]oxazol-5-yl]pyrimidin-2-amine], the inhibition at 10 µM (@ 10 uM) turned out to be 57%.
